Assay results as given in patent publication US20150087686A1, “CRYSTALLINE FORMS OF SAXAGLIPTIN” (priority 2012, published 2015).
Where a name gives a salt, the structure may show the parent alone. Values belong to the compound of their own block, whether it stands above or below them.

Assays:
Format in all cases: physicochemical
[1] = Solubility and stability in water at room temperature; conditions: for Solubility in water: volumes of water in which the form is soluble / Solubility in water compared with saxagliptin HCl dihydrate H2-1: room temperature
[2] = Chemical stability at 60° C.-37% RH (amidine impurities by HPLC-MS); conditions: for Color of the solid form after storage: after 1 week
Method: (§1) Crystalline and chemical stability at 60° C.-37% RH: saxagliptin crystalline form I and the known saxagliptin crystalline forms H-1, H2-1 were stored at 60° C. with 37% relative humidity (RH). The samples were analyzed by XRPD and HPLC-MS to check crystalline transformation and chemical degradation.
(§2) Crystalline and chemical stability at 60° C.—37% RH: Saxagliptin crystalline forms H-1, H2-1 and A were stored at 60° C. with 37% RH. The samples were analyzed by XRPD and HPLC-MS to check crystalline transformation and chemical degradation.

[3] = Crystalline stability at 60° C.-37% RH (XRPD); conditions: stored at 60° C. with 37% RH
Method: as §1, with “degradation. […] However, chemical degradations were observed (see Table 6 below).” for “degradation.”
as §2

[4] = Crystal form stability at room temperature (transformation to H2-1); conditions: H0.75-3: after one night
Source text: WO20100115974 discloses three forms of saxagliptin hydrochloride (I-S, HT-S, IV-S) but with a water content of not more than 1.5% by weight. […] On the other hand, the saxagliptin hydrochloride dihydrate H2-1 is stable. Unfortunately, it is difficult to prepare it in pure form by an industrial process which could be reproducible at industrial scale.

Solubility in water (in words, description) [1]: soluble in water
Solubility in water ([1]; 20 vol. in water at room temperature (20-25° C.)): soluble
Stability in water (reprecipitation) ([1]; 20 vol. in water at room temperature, after 24 h): reprecipitation was not observed
Degradation rate / stability compared with free base H-1 and hydrochloride H2-1 [2]: much lower
Δ variation amidine Impurity % (HPLC-MS), impurity (A) ([2]; 16 h (Table 6)): 0.08% (A)
Δ variation amidine Impurity % (HPLC-MS), impurity (A) ([2]; 168 h (Table 6)): 0.38% (A)
Δ variation amidine Impurity % (HPLC-MS), impurity (A) ([2]; 184 h (Table 6)): 0.40% (A)
Color of the solid form after storage [2]: remained white
Compound: saxagliptin HCl.saxagliptin cocrystal (1:1) hydrate [Form I]
Crystalline transformation (XRPD) [3]: No crystalline transformations were observed

Compound: N#C[C@@H]1C[C@@H]2C[C@@H]2N1C(=O)[C@@H](N)C12CC3CC(CC(O)(C3)C1)C2 [IV-S, saxagliptin hydrochloride]
Crystal form stability (transformation to saxagliptin hydrochloride dihydrate H2-1) ([4]; hydrochloride): not very stable

Compound: N#C[C@@H]1C[C@@H]2C[C@@H]2N1C(=O)[C@@H](N)C12CC3CC(CC(O)(C3)C1)C2 [Form P-5, saxagliptin hydrochloride]
Crystal form stability (transformation to saxagliptin hydrochloride dihydrate H2-1) ([4]; hydrochloride): not very stable

Compound: N#C[C@@H]1C[C@@H]2C[C@@H]2N1C(=O)[C@@H](N)C12CC3CC(CC(O)(C3)C1)C2 [Form H2-1, saxagliptin hydrochloride dihydrate, reference compound]
Solubility in water: volumes of water in which the form is soluble [1]: 5 volumes of water
Crystal form stability (transformation to saxagliptin hydrochloride dihydrate H2-1) ([4]; hydrochloride dihydrate): stable

Solubility in water (in words, description) [1]: soluble in water
Solubility in water compared with saxagliptin HCl dihydrate H2-1 [1]: solubility similar
Solubility in water: volumes of water in which the form is soluble [1]: approximately 4 volumes of water
Compound: saxagliptin HCl.malonic acid cocrystal (3:2) hydrate [Form III]

Compound: Cl.N#C[C@@H]1C[C@@H]2C[C@@H]2N1C(=O)[C@@H](N)C12CC3CC(CC(O)(C3)C1)C2.NC(N)=O.NC(N)=O.NC(N)=O [Form IV, saxagliptin HCl.urea cocrystal (1:3)]
Solubility in water (in words, description) [1]: very soluble in water
Solubility in water compared with saxagliptin HCl dihydrate H2-1 [1]: more soluble
Solubility in water: volumes of water in which the form is soluble [1]: approximately 2.5 volumes of water

Compound: N#C[C@@H]1C[C@@H]2C[C@@H]2N1C(=O)[C@@H](N)C12CC3CC(CC(O)(C3)C1)C2 [HT-S, saxagliptin hydrochloride]
Crystal form stability (transformation to saxagliptin hydrochloride dihydrate H2-1) ([4]; hydrochloride): not very stable

Compound: Cl.N#C[C@@H]1C[C@@H]2C[C@@H]2N1C(=O)[C@@H](N)C12CC3CC(CC(O)(C3)C1)C2.O.O=C(O)CO [Form II, saxagliptin HCl glycolic acid cocrystal (1:1) monohydrate]
Solubility in water (in words, description) [1]: quite soluble in water
Solubility in water compared with saxagliptin HCl dihydrate H2-1 [1]: same solubility
Solubility in water: volumes of water in which the form is soluble [1]: 5 volumes of water

Compound: N#C[C@@H]1C[C@@H]2C[C@@H]2N1C(=O)[C@@H](N)C12CC3CC(CC(O)(C3)C1)C2 [Form H0.75-3, saxagliptin hydrochloride]
Crystal form stability (transformation to saxagliptin hydrochloride dihydrate H2-1) ([4]; hydrochloride): transforms to saxagliptin hydrochloride dihydrate H2-1

Δ variation amidine Impurity % (HPLC-MS), impurity (A) ([2]; 16 h (Table 6)): 0.64% (A)
Δ variation amidine Impurities A and B % (HPLC-MS), impurity (A) ([2]; 16 h (Table 7)): 0.6% (A)
Δ variation amidine Impurity % (HPLC-MS), impurity (A) ([2]; 168 h (Table 6)): 2.68%
Δ variation amidine Impurity % (HPLC-MS), impurity (B) ([2]; 168 h (Table 6)): 2.21%
Δ variation amidine Impurities A and B % (HPLC-MS), impurity (A) ([2]; 168 h (Table 7)): 2.7%
Δ variation amidine Impurities A and B % (HPLC-MS), impurity (B) ([2]; 168 h (Table 7)): 2.2%
Δ variation amidine Impurity % (HPLC-MS), impurity (A) ([2]; 184 h (Table 6)): 2.86% (A) +
Δ variation amidine Impurity % (HPLC-MS), impurity (B) ([2]; 184 h (Table 6)): 2.33% (B)
Color of the solid form after storage [2]: became yellowish
Compound: N#C[C@@H]1C[C@@H]2C[C@@H]2N1C(=O)[C@@H](N)C12CC3CC(CC(O)(C3)C1)C2 [Form H-1, (1S,3S,5S)-2-[(2S)-2-amino-2-(3-hydroxy-1-adamantyl)acetyl]-2-azabicyclo[3.1.0]hexane-3-carbonitrile]
Crystalline transformation (XRPD) [3]: No crystalline transformations were observed

Compound: N#C[C@@H]1C[C@@H]2C[C@@H]2N1C(=O)[C@@H](N)C12CC3CC(CC(O)(C3)C1)C2 [I-S, saxagliptin hydrochloride]
Crystal form stability (transformation to saxagliptin hydrochloride dihydrate H2-1) ([4]; hydrochloride): not very stable
